In ChEMBL document CHEMBL1201862, “PubChem BioAssay data set” (2004):
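Following 48 hours of exposure in 96-well plates, responses at five concentrations were used to interpolate endpoints linearly. GI50 = concentration required for 50% inhibition of growth.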 Calls of active or inactive are those of the source. No stated cut-off is given here; in the data, active = GI50 up to about 1.1 µM and inactive = higher.

What was measured:
Experiment in all cases: NCI anticancer screen, dose series, 48 h
KM12 = system: KM12
PC-3 = system: PC-3
OVCAR-4 = system: OVCAR-4
NCI-H460 = system: NCI-H460
MDA-MB-435 = system: MDA-MB-435
HCT-116 = system: HCT-116
SF-539 = system: SF-539
Malme-3M = system: Malme-3M
K562 = system: K562
SNB-19 = system: SNB-19
T47D = system: T47D
TK-10 = system: TK-10
NCI/ADR-RES = system: NCI/ADR-RES
SNB-75 = system: SNB-75
OVCAR-8 = system: OVCAR-8
NCI-H23 = system: NCI-H23
CAKI-1 = system: CAKI-1
A549 = system: A549
HL-60 = system: HL-60
A498 = system: A498

Measured: GI50

COc1ccc2nc3ccc(OC)cc3c(SCc3ccccc3)c2c1
inactive: KM12 > 100 µM | PC-3 > 100 µM | OVCAR-4 > 100 µM | NCI-H460 > 89.1 µM | MDA-MB-435 > 76.9 µM | HCT-116 > 74 µM | SF-539 > 89.3 µM | Malme-3M > 100 µM | K562 > 63.2 µM | SNB-19 > 100 µM | T47D > 100 µM | TK-10 > 80.7 µM | NCI/ADR-RES > 100 µM | SNB-75 > 88.7 µM | OVCAR-8 > 84.1 µM | NCI-H23 64.7 µM | CAKI-1 > 100 µM | A549 > 82.4 µM | HL-60 > 100 µM | A498 > 100 µM

NC1=Nc2cc(Cl)ccc2Sc2nc3ccccc3n21
inactive: KM12 > 100 µM | PC-3 6.76 µM | OVCAR-4 > 20.8 µM | NCI-H460 4.13 µM | MDA-MB-435 > 100 µM | HCT-116 1.87 µM | SF-539 > 100 µM | Malme-3M > 100 µM | K562 3.47 µM | SNB-19 22.2 µM | T47D > 33.8 µM | TK-10 > 88.9 µM | NCI/ADR-RES > 100 µM | SNB-75 21.4 µM | OVCAR-8 5.09 µM | NCI-H23 6.53 µM | CAKI-1 > 100 µM | A549 > 24.2 µM | HL-60 2.39 µM | A498 > 100 µM

CN(C)/C=N/c1ccc2nonc2c1
inactive: KM12 > 100 µM | PC-3 > 100 µM | OVCAR-4 > 100 µM | NCI-H460 > 100 µM | MDA-MB-435 > 100 µM | HCT-116 > 100 µM | SF-539 > 100 µM | Malme-3M > 100 µM | K562 > 100 µM | SNB-19 > 100 µM | T47D > 100 µM | TK-10 > 100 µM | NCI/ADR-RES > 100 µM | SNB-75 > 100 µM | OVCAR-8 > 100 µM | NCI-H23 > 100 µM | CAKI-1 > 100 µM | A549 > 100 µM | HL-60 > 100 µM | A498 > 100 µM
